{"source": "patent US3962282A", "about": "“Juvenile hormone mimics” (priority 1974, dated 1976)", "key": {"[1]": {"tested_on": "Aedes aegypti mosquito larvae", "assay": "mosquito larvae in aqueous solutions, adult emergence", "format": "in vivo", "conditions": "for number of adults, Jar 1 Dead / number of adults, Jar 1 Living / number of adults, Jar 2 Dead / number of adults, Jar 2 Living: 13 days", "experimental": "Two compounds, 7,8-epoxy-4-ethyl-8-methyl-1-(3,4-methylenedioxyphenyl)-3-decene and 2,6-diemthyl-9-(3,4-methylenedioxyphenyl)-2,6-nonadiene, were tested against Aedes aegypti mosquito larvae in aqueous solutions at concentrations of 10, 5, 2.5. 1.25 and 0.625 ppm. each. Ninety milliliters of each solution were placed in a pint jar and 30 five-day-old mosquito larvae were added to each jar. Two tests were run at each concentration and control tests employing only solvent with no compound were also run. Food was added to each jar, the jars were covered with cloths, and maintained at 29°C. until adults emerged in the control jars. The number of adults in the test jars was determined."}, "[2]": {"tested_on": "Housefly (Musca domestica)", "assay": "housefly rearing diet test, percent adult emergence", "format": "in vivo", "experimental": "Test compounds were mixed with the rearing diet of houseflys at various levels. The prepared diet was then placed in an 8 oz. drinking cup. Three cups were prepared for each treatment level and three control cups. Housefly eggs (Musca domestica) were placed in each cup and they were maintained at 28°C. for 1 week. Fifty pupae were then removed from each cup and placed in a petri dish. After the control pupae had emerged into adults, the percent emergence in each dish was recorded. The test compounds used were 7,8-epoxy-4-ethyl-8-methyl-1-(3,4-methylenedioxyphenyl)-3-decene, 4,8-dimetyl-1-(3,4-methylenedioxyphenyl)-2,6-nonadiene and 2,6-dichloro-2,6-dimethyl-9-(3,4-methylenedioxyphenyl)nonane."}, "[3]": {"tested_on": "Melon aphids (Aphis gossypi)", "assay": "melon aphids on dipped squash plants", "format": "in vivo", "conditions": "200 ppm, six days", "experimental": "Young squash plants were dipped for 30 seconds in aqueous solutions containing 200, 100, and 50 ppm. of 2.6-dimethyl-9-(3,4-methylenedioxyphenyl)-2,6-nonadiene. Three plants were treated at each concentration and three plants were used as controls. After the plants had dried, ten adult aphids (Aphis gossypi) were placed on each plant and allowed to feed. The plants were maintained under laboratory conditions. Twenty-four hours after they were placed on the plants, all adults were removed, leaving young nymphs. Six days after treatment, the total number of aphids on each plant was determined."}, "[4]": {"tested_on": "cockroach nymphs (Blattella germanica)", "assay": "German cockroach nymphs in treated glass jars", "format": "in vivo", "conditions": "for reproduction: four months", "experimental": "Test jars were prepared by adding 2 ml. of an acetone solution containing 10 mg., 20 mg., or 100 mg. of 2,6-dimethyl-9-(3,4-methylenedioxyphenyl)-2,6-nonadiene to 1 gallon glass jars and allowing the acetone to evaporate. The jars were equipped with watering bottles, food, and paper towels. There were two jars for each rate of test compound and two jars for nontreated controls. To each jar were added 20 40-day-old cockroach nymphs (Blattella germanica). […] Thus, the nonadiene at 100 mg. had prevented reproduction for 4 months."}, "Southern corn rootworm": {"tested_on": "Southern corn rootworm", "assay": "Southern corn rootworm larvae in treated petri dishes, adult emergence", "format": "in vivo, Diabrotica undecimpunctata", "conditions": "21 days", "experimental": "Petri dishes containing 150 g. of sand were autoclaved for one hour. Corn seed which had been soaked overnight was rinsed first with a solution of 10 percent alcohol, 20 percent chlorox, and 70 percent water for 15 minutes and then with clear water. Three to four seeds were placed in each dish. The dishes were then moistened with 15 ml. of a 100 ppm. solution of a fungicide. After 24 hours, ten Southern corn rootworm eggs (Diabrotica undecimpunctata) were placed in each dish. The dishes were maintained in an incubator in the dark for 14 days. New petri dishes were prepared as described except that the eggs were not added and 2,6-diemthyl-9-(3,4-methylenedioxyphenyl)-2,6-nonadiene was added at a rate of 100 ppm. or 10 ppm. Ten dishes at each treatment rate and ten controls were used. Three larvae from the incubated dishes were placed in each of the treated dishes and each control dish. […] There were a total of 15 adults in the ten dishes treated at 10 ppm. and a total of 19 adults in the ten control dishes."}, "Mexican bean beetle": {"tested_on": "Mexican bean beetle", "assay": "topical application to Mexican bean beetle, fourth larval stage, maturation inhibition", "format": "in vivo", "conditions": "rating scale 0-3", "in_short": "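Compounds applied topically, 1 μL acetone solution at 10%, 1% or 0.5%, to ten specimens per insect per concentration, alongside acetone and untreated controls; scored after about 8–10 days. Juvenile/adult characteristics rated 0–3 (Tenebrio 0–4), ≥2 meaning unable to reproduce; unreported specimens died during metamorphosis.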"}}, "note": "Several values for one entry are separate records, joined by “and”; a condition that tells them apart may be missing. Equal entries are not always repeated."}
{"compound": "CC(C)=CCCC(C)=CCCc1ccc2c(c1)OCO2", "note": "[2,6-dimethyl-9-(3,4-methylenedioxyphenyl)-2,6-nonadiene]", "values": [{"measurement": "number of adults, Jar 1 Dead", "setting": "[1]; 0.625 ppm", "value": 21}, {"measurement": "number of adults, Jar 1 Living", "setting": "[1]; 0.625 ppm", "value": 1}, {"measurement": "number of adults, Jar 2 Dead", "setting": "[1]; 0.625 ppm", "value": 21}, {"measurement": "number of adults, Jar 2 Living", "setting": "[1]; 0.625 ppm", "value": 0}, {"measurement": "number of adults, Jar 1 Dead", "setting": "[1]; 1.25 ppm", "value": 1}, {"measurement": "number of adults, Jar 1 Living", "setting": "[1]; 1.25 ppm", "value": 3}, {"measurement": "number of adults, Jar 2 Dead", "setting": "[1]; 1.25 ppm", "value": 10}, {"measurement": "number of adults, Jar 2 Living", "setting": "[1]; 1.25 ppm", "value": 1}, {"measurement": "number of adults, Jar 1 Dead", "setting": "[1]; 2.5 ppm", "value": 0}, {"measurement": "number of adults, Jar 1 Living", "setting": "[1]; 2.5 ppm", "value": 0}, {"measurement": "number of adults, Jar 2 Dead", "setting": "[1]; 2.5 ppm", "value": 1}, {"measurement": "number of adults, Jar 2 Living", "setting": "[1]; 2.5 ppm", "value": 0}, {"measurement": "number of adults, Jar 1 Dead", "setting": "[1]; 5 ppm", "value": 0}, {"measurement": "number of adults, Jar 1 Living", "setting": "[1]; 5 ppm", "value": 0}, {"measurement": "number of adults, Jar 2 Dead", "setting": "[1]; 5 ppm", "value": 0}, {"measurement": "number of adults, Jar 2 Living", "setting": "[1]; 5 ppm", "value": 0}, {"measurement": "number of adults, Jar 1 Dead", "setting": "[1]; 10 ppm", "value": 0}, {"measurement": "number of adults, Jar 1 Living", "setting": "[1]; 10 ppm", "value": 0}, {"measurement": "number of adults, Jar 2 Dead", "setting": "[1]; 10 ppm", "value": 0}, {"measurement": "number of adults, Jar 2 Living", "setting": "[1]; 10 ppm", "value": 0}, {"measurement": "control", "setting": "[1]; at concentrations as low as 2.5 ppm", "value": 100, "unit": "%"}, {"measurement": "live adults in the jars", "setting": "[1]; nonadiene at 10, 5, and 2.5 ppm, decene at any concentration", "value": "never any live adults"}, {"measurement": "percent adult emergence, Cup 1", "setting": "[2]; 100 ppm in diet", "value": 90, "unit": "%"}, {"measurement": "percent adult emergence, Cup 2", "setting": "[2]; 100 ppm in diet", "value": 30, "unit": "%"}, {"measurement": "percent adult emergence, Cup 3", "setting": "[2]; 100 ppm in diet", "value": 10, "unit": "%"}, {"measurement": "control", "setting": "[2]; 500 ppm", "value": 100, "unit": "%"}, {"measurement": "percent adult emergence, Cup 1", "setting": "[2]; 500 ppm in diet", "value": 0, "unit": "%"}, {"measurement": "percent adult emergence, Cup 2", "setting": "[2]; 500 ppm in diet", "value": 0, "unit": "%"}, {"measurement": "percent adult emergence, Cup 3", "setting": "[2]; 500 ppm in diet", "value": 0, "unit": "%"}, {"measurement": "number of aphids per plant, Total", "setting": "[3]", "value": "15 and 13 and 22"}, {"measurement": "state of adults and nymphs", "setting": "[4]; 10 mg, about 2 1/2 months", "value": "normal adults and newly hatched nymphs"}, {"measurement": "state of adults and nymphs", "setting": "[4]; 20 mg, about 2 1/2 months", "value": "normal adults and newly hatched nymphs"}, {"measurement": "duration of prevented reproduction", "setting": "[4]; 100 mg", "value": 4, "unit": "months"}, {"measurement": "newly hatched nymphs", "setting": "[4]; 100 mg, about 2 1/2 months", "value": "did not contain newly hatched nymphs"}, {"measurement": "wings of adults", "setting": "[4]; 100 mg, about 2 1/2 months", "value": "all adults in the jars had deformed wings"}, {"measurement": "reproduction", "setting": "[4]; 100 mg", "value": "no reproduction"}, {"measurement": "reproduction", "setting": "[4]; lower rate jars (10 and 20 mg)", "value": "large numbers of newly hatched nymphs"}, {"measurement": "total adults in the ten dishes", "setting": "Southern corn rootworm; 10 ppm, 19 adults in ten control dishes", "value": 15, "unit": "adults"}, {"measurement": "adults emerged", "setting": "Southern corn rootworm; 100 ppm", "value": "no adults had emerged"}, {"measurement": "number of specimens in rating 3", "setting": "Mexican bean beetle; 0.5%", "value": 9, "unit": "specimens"}, {"measurement": "number of specimens in rating 3", "setting": "Mexican bean beetle; 1%", "value": 10, "unit": "specimens"}, {"measurement": "number of specimens in rating 3", "setting": "Mexican bean beetle; 10%", "value": 1, "unit": "specimens"}]}
